# Test results taken from ChEMBL document CHEMBL2163297, “Discovery of novel PI3-kinase δ specific inhibitors for the treatment of rheumatoid arthritis: taming CYP3A4 time-dependent inhibition” (J Med Chem, 2012).
# Target: T1, Phosphatidylinositol 4,5-bisphosphate 3-kinase catalytic subunit delta isoform (Homo sapiens, UniProt O00329)
# T1 sequence (O00329 whole entry): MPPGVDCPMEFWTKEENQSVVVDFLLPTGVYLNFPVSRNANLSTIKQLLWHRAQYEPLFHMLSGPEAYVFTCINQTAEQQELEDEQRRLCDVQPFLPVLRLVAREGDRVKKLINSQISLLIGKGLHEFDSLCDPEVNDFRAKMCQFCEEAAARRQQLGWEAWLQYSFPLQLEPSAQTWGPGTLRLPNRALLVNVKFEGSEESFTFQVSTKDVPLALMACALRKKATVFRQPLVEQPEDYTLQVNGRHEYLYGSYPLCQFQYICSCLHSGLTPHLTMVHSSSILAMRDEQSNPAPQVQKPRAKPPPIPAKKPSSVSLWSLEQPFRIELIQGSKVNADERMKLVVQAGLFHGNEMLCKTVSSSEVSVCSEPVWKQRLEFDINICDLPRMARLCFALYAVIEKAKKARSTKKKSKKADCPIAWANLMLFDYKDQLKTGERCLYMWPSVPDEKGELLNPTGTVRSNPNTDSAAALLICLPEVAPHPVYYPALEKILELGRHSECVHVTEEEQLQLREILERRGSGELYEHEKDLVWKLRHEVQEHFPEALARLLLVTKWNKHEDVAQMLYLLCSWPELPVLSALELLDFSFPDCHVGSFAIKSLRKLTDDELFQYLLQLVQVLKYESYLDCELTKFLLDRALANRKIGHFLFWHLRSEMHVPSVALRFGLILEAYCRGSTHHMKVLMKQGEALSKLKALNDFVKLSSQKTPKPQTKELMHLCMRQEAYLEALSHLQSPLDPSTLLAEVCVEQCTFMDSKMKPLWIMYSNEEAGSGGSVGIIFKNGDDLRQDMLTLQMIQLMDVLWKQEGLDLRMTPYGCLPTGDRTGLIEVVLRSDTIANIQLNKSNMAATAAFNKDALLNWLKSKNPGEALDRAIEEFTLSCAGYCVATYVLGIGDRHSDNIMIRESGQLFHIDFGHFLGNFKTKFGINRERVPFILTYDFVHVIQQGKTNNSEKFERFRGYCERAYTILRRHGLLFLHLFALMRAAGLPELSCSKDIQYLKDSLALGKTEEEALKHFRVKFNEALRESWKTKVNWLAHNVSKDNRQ
# Experiment: Inhibition of human PI3Kdelta-mediated AKT phosphorylation at S473 in Ri-1 cells after 30 mins by electrochemiluminescence assay in presence of human serum albumin and alpha1 acid glycoprotein
# Assay type: cell-based
# Details: not given
row,IC50,SMILES
1,3200 nM,CN(C)C1CCN(Cc2cc3nc(-n4ncc5ccccc54)nc(N4CCOCC4)c3s2)CC1
2,970 nM,CN(C)C1CCN(Cc2cc3nc(-n4cnc5ccccc54)nc(N4CCOCC4)c3s2)CC1
3,2000 nM,Cc1ncc2ccccc2c1-c1nc(N2CCOCC2)c2sc(CN3CCC(N(C)C)CC3)cc2n1
4,180 nM,CN(C)C1CCN(Cc2cc3nc(-c4cccc5nccn45)nc(N4CCOCC4)c3s2)CC1
5,374 nM,Cc1nc2ccccc2n1-c1nc(N2CCOCC2)c2sc(CN3CCC(N(C)C)CC3)cc2n1
6,420 nM,CN(C)C1CCN(Cc2cc3nc(-n4ccc5ccccc54)nc(N4CCOCC4)c3s2)CC1

# More lines, now with the values behind:
row,SMILES,IC50
1,Cc1cccc(-c2nc(N3CCOCC3)c3sc(CN4CCC(N(C)C)CC4)cc3n2)c1,1300 nM
2,CCc1nc2ccccc2n1-c1nc(N2CCOCC2)c2sc(CN3CCN(C4COC4)CC3(C)C)cc2n1,102 nM
3,CCc1nc2ccccc2n1-c1nc(N2CCOCC2)c2sc(CN3CCN(S(C)(=O)=O)CC3)cc2n1,79 nM
4,CN(C)C1CCN(Cc2cc3nc(-c4c(F)ccc5[nH]ccc45)nc(N4CCOCC4)c3s2)CC1,29 nM
5,CN(C)C1CCN(Cc2cc3nc(-c4cccc5c4CC(=O)N5)nc(N4CCOCC4)c3s2)CC1,3400 nM

# Target: T1, Phosphatidylinositol 4,5-bisphosphate 3-kinase catalytic subunit delta isoform
# Details: not given
row,IC50,SMILES
1,16 nM,CN(C)C1CCN(Cc2cc3nc(-n4ncc5ccccc54)nc(N4CCOCC4)c3s2)CC1
2,23 nM,CN(C)C1CCN(Cc2cc3nc(-n4cnc5ccccc54)nc(N4CCOCC4)c3s2)CC1
3,29 nM,Cc1ncc2ccccc2c1-c1nc(N2CCOCC2)c2sc(CN3CCC(N(C)C)CC3)cc2n1
4,27 nM,CN(C)C1CCN(Cc2cc3nc(-c4cccc5nccn45)nc(N4CCOCC4)c3s2)CC1
5,2.7 nM,Cc1nc2ccccc2n1-c1nc(N2CCOCC2)c2sc(CN3CCC(N(C)C)CC3)cc2n1
6,10 nM,CN(C)C1CCN(Cc2cc3nc(-n4ccc5ccccc54)nc(N4CCOCC4)c3s2)CC1

# The remaining lines, values behind:
row,SMILES,IC50
1,Cc1cccc(-c2nc(N3CCOCC3)c3sc(CN4CCC(N(C)C)CC4)cc3n2)c1,12 nM
2,CCc1nc2ccccc2n1-c1nc(N2CCOCC2)c2sc(CN3CCN(C4COC4)CC3(C)C)cc2n1,2.3 nM
3,CC(C)(C(N)=O)N1CCN(Cc2cc3nc(-c4cccc5[nH]ccc45)nc(N4CCOCC4)c3s2)CC1,1.8 nM
4,Cc1cc2c(-c3nc(N4CCOCC4)c4sc(CN5CCN(C(C)(C)C(N)=O)CC5)cc4n3)cccc2[nH]1,1.1 nM
5,CC(C)(C(N)=O)N1CCN(Cc2cc3nc(-c4ccnc5[nH]ccc45)nc(N4CCOCC4)c3s2)CC1,2.3 nM
6,CCc1nc2ccccc2n1-c1nc(N2CCOCC2)c2sc(CN3CCN(S(C)(=O)=O)CC3)cc2n1,4.3 nM
7,CN(C)C1CCN(Cc2cc3nc(-c4c(F)ccc5[nH]ccc45)nc(N4CCOCC4)c3s2)CC1,1.8 nM
8,CN(C)C1CCN(Cc2cc3nc(-c4cccc5c4CC(=O)N5)nc(N4CCOCC4)c3s2)CC1,41 nM

# Target: T2, Cytochrome P450 3A4 (Homo sapiens, UniProt P08684)
# T2 sequence (P08684 whole entry): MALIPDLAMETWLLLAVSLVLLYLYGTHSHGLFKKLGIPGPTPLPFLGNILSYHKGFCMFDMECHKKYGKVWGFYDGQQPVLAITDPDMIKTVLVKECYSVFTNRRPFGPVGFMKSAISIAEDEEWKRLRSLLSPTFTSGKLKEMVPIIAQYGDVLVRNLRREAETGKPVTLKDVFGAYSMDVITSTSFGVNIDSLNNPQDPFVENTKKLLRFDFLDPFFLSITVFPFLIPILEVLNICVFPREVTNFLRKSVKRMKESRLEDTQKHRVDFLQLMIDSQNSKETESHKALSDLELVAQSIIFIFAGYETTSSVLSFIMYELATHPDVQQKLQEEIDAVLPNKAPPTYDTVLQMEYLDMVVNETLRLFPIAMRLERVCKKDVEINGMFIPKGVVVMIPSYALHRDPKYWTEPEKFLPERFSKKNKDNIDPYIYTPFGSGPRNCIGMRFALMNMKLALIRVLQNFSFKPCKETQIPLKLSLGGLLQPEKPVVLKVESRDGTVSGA
# Experiment: Time dependent inhibition of CYP3A4 in human liver microsomes preincubated for 30 mins
# Assay type: ADME, Microsome
# Details: not given
row,IC50,SMILES
1,> 10000 nM,CCc1nc2ccccc2n1-c1nc(N2CCOCC2)c2sc(CN3CCN(C4COC4)CC3(C)C)cc2n1
2,< 100 nM,Cc1cc2c(-c3nc(N4CCOCC4)c4sc(CN5CCN(C(C)(C)C(N)=O)CC5)cc4n3)cccc2[nH]1
3,< 100 nM,CC(C)(C(N)=O)N1CCN(Cc2cc3nc(-c4ccnc5[nH]ccc45)nc(N4CCOCC4)c3s2)CC1
4,> 10000 nM,CCc1nc2ccccc2n1-c1nc(N2CCOCC2)c2sc(CN3CCN(S(C)(=O)=O)CC3)cc2n1
5,9100 nM,CN(C)C1CCN(Cc2cc3nc(-c4c(F)ccc5[nH]ccc45)nc(N4CCOCC4)c3s2)CC1
6,> 10000 nM,Cc1nc2ccccc2n1-c1nc(N2CCOCC2)c2sc(CN3CCC(N(C)C)CC3)cc2n1

# System: not listed separately
# Experiment: Selectivity ratio of IC50 for PI3Kbeta to IC50 for PI3Kdelta
# Details: not given
row,Ratio IC50,SMILES
1,815,CCc1nc2ccccc2n1-c1nc(N2CCOCC2)c2sc(CN3CCN(C4COC4)CC3(C)C)cc2n1
2,104,CC(C)(C(N)=O)N1CCN(Cc2cc3nc(-c4cccc5[nH]ccc45)nc(N4CCOCC4)c3s2)CC1
3,101,Cc1cc2c(-c3nc(N4CCOCC4)c4sc(CN5CCN(C(C)(C)C(N)=O)CC5)cc4n3)cccc2[nH]1
4,103,CC(C)(C(N)=O)N1CCN(Cc2cc3nc(-c4ccnc5[nH]ccc45)nc(N4CCOCC4)c3s2)CC1
5,12,CCc1nc2ccccc2n1-c1nc(N2CCOCC2)c2sc(CN3CCN(S(C)(=O)=O)CC3)cc2n1
6,252,Cc1nc2ccccc2n1-c1nc(N2CCOCC2)c2sc(CN3CCC(N(C)C)CC3)cc2n1

# System: not listed separately
# Experiment: Selectivity ratio of IC50 for PI3Kgamma to IC50 for PI3Kdelta
# Details: not given
row,Ratio IC50,SMILES
1,112,CCc1nc2ccccc2n1-c1nc(N2CCOCC2)c2sc(CN3CCN(C4COC4)CC3(C)C)cc2n1
2,1440,CC(C)(C(N)=O)N1CCN(Cc2cc3nc(-c4cccc5[nH]ccc45)nc(N4CCOCC4)c3s2)CC1
3,715,Cc1cc2c(-c3nc(N4CCOCC4)c4sc(CN5CCN(C(C)(C)C(N)=O)CC5)cc4n3)cccc2[nH]1
4,81,CC(C)(C(N)=O)N1CCN(Cc2cc3nc(-c4ccnc5[nH]ccc45)nc(N4CCOCC4)c3s2)CC1
5,14,CCc1nc2ccccc2n1-c1nc(N2CCOCC2)c2sc(CN3CCN(S(C)(=O)=O)CC3)cc2n1
6,233,Cc1nc2ccccc2n1-c1nc(N2CCOCC2)c2sc(CN3CCC(N(C)C)CC3)cc2n1

# System: not listed separately
# Experiment: Selectivity ratio of IC50 for PI3Kalpha to IC50 for PI3Kdelta
# Details: not given
row,Ratio IC50,SMILES
1,39,CN(C)C1CCN(Cc2cc3nc(-n4ncc5ccccc54)nc(N4CCOCC4)c3s2)CC1
2,14,CN(C)C1CCN(Cc2cc3nc(-n4cnc5ccccc54)nc(N4CCOCC4)c3s2)CC1
3,144,Cc1ncc2ccccc2c1-c1nc(N2CCOCC2)c2sc(CN3CCC(N(C)C)CC3)cc2n1
4,21,CN(C)C1CCN(Cc2cc3nc(-c4cccc5nccn45)nc(N4CCOCC4)c3s2)CC1
5,29,Cc1nc2ccccc2n1-c1nc(N2CCOCC2)c2sc(CN3CCC(N(C)C)CC3)cc2n1
6,54,CN(C)C1CCN(Cc2cc3nc(-n4ccc5ccccc54)nc(N4CCOCC4)c3s2)CC1

# The remaining lines, values behind:
row,SMILES,Ratio IC50
1,Cc1cccc(-c2nc(N3CCOCC3)c3sc(CN4CCC(N(C)C)CC4)cc3n2)c1,98
2,CCc1nc2ccccc2n1-c1nc(N2CCOCC2)c2sc(CN3CCN(C4COC4)CC3(C)C)cc2n1,50
3,CC(C)(C(N)=O)N1CCN(Cc2cc3nc(-c4cccc5[nH]ccc45)nc(N4CCOCC4)c3s2)CC1,129
4,Cc1cc2c(-c3nc(N4CCOCC4)c4sc(CN5CCN(C(C)(C)C(N)=O)CC5)cc4n3)cccc2[nH]1,122
5,CC(C)(C(N)=O)N1CCN(Cc2cc3nc(-c4ccnc5[nH]ccc45)nc(N4CCOCC4)c3s2)CC1,30
6,CCc1nc2ccccc2n1-c1nc(N2CCOCC2)c2sc(CN3CCN(S(C)(=O)=O)CC3)cc2n1,2
7,CN(C)C1CCN(Cc2cc3nc(-c4c(F)ccc5[nH]ccc45)nc(N4CCOCC4)c3s2)CC1,226
8,CN(C)C1CCN(Cc2cc3nc(-c4cccc5c4CC(=O)N5)nc(N4CCOCC4)c3s2)CC1,8

# Target: T2, Cytochrome P450 3A4
# Experiment: Inhibition of CYP3A4 in human liver microsomes
# Assay type: ADME, Microsome
# Details: TDE = time-dependent effect
row,inhibition (INH),SMILES
1,tde,CC(C)(C(N)=O)N1CCN(Cc2cc3nc(-c4cccc5[nH]ccc45)nc(N4CCOCC4)c3s2)CC1

# Target: T3, Phosphatidylinositol 4,5-bisphosphate 3-kinase catalytic subunit delta isoform (Homo sapiens) (UniProt O00329)
# T3 sequence (whole entry): T1 sequence (O00329 whole entry)
# Experiment: Ratio of IC50 for human PI3Kdelta-mediated AKT phosphorylation at S473 in Ri-1 cells to IC50 for PI3Kdelta
# Assay type: cell-based
# Details: not given
row,Ratio IC50,SMILES
1,16,CN(C)C1CCN(Cc2cc3nc(-c4c(F)ccc5[nH]ccc45)nc(N4CCOCC4)c3s2)CC1
2,42,CN(C)C1CCN(Cc2cc3nc(-n4cnc5ccccc54)nc(N4CCOCC4)c3s2)CC1
